Tests used:
Conditions in all cases: incubation time: 72 h
[1] = tested on: HDQ-P1; assay: drug sensitivity score (DSS), CellTiter-Glo (DSS (AUC-based score)); higher = stronger drug effect (viability inhibition or cytotoxicity); extreme values may be limits of the assay
Procedure, shortened: (§1)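 Normalisation on every plate relied on 0.1 % DMSO and a positive kill control. The plates, 384-well format, held compound at 5 concentrations 10-fold apart across a compound-specific 10,000-fold range, and breast cancer cell lines in 20 µl suspension were incubated on them for 72 h before CellTox Green and then CellTiter-Glo readings. The drug sensitivity score derives from the area under the fitted dose-response curve.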

[2] = tested on: BT-474; assay: as above
Procedure, shortened: as §1

[3] = tested on: HCC1143; assay: as above
Procedure, shortened: as §1

[4] = tested on: HCC1937; assay: as above
Procedure, shortened: as §1

[5] = tested on: MCF-10A; assay: as above
Procedure, shortened: as §1

[6] = tested on: MDA-MB-231; assay: as above
Procedure, shortened: as §1

[7] = tested on: HDQ-P1; assay: normalised viability (% of control), CellTiter-Blue; higher = more viable cells (about 100 = DMSO control)
Procedure, shortened: (§2)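 Seeded at 20 µl suspension per well onto compound-loaded 384-well plates, breast cancer cell lines were incubated 72 h. CellTiter-Blue fluorescence at 560/590 nm was then read, with each plate normalised to vehicle (100) and a positive kill control (0). Normalised viability is reported at a single listed concentration of the series.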

[8] = tested on: CAL-85-1; assay: as above
Procedure, shortened: as §2

[9] = tested on: MDA-MB-436; assay: as above
Procedure, shortened: as §2

[10] = tested on: HCC1599; assay: as above
Procedure, shortened: as §2

[11] = tested on: CAL-148; assay: as above
Procedure, shortened: as §2

[12] = tested on: BT-474; assay: as above
Procedure, shortened: as §2

[13] = tested on: HCC1143; assay: as above
Procedure, shortened: as §2

[14] = tested on: HCC1937; assay: as above
Procedure, shortened: as §2

[15] = tested on: MDA-MB-468; assay: as above
Procedure, shortened: as §2

[16] = tested on: MFM-223; assay: as above
Procedure, shortened: as §2

[17] = tested on: DU-4475; assay: as above
Procedure, shortened: as §2

[18] = tested on: CAL-120; assay: as above
Procedure, shortened: as §2

[19] = tested on: Hs578T; assay: as above
Procedure, shortened: as §2

[20] = tested on: SK-BR-3; assay: as above
Procedure, shortened: as §2

[21] = tested on: CAL-51; assay: as above
Procedure, shortened: as §2

[22] = tested on: MDA-MB-453; assay: as above
Procedure, shortened: as §2

[23] = tested on: MDA-MB-231; assay: as above
Procedure, shortened: as §2

[24] = tested on: BT-549; assay: as above
Procedure, shortened: as §2

COc1cc2c(N3CCN(C(=O)Nc4ccc(OC(C)C)cc4)CC3)ncnc2cc1OCCCN1CCCCC1 [Tandutinib]
Conditions	drug sensitivity score
[1]	0
[2]	0
[3]	0
[4]	0
[5]	0
[6]	0

normalised viability [%]
Conditions	0.3 nM	1 nM	3 nM	10 nM	100 nM	1000 nM
[7]	105	–	95.5	109	–	–
[8]	102	–	91.2	103	–	–
[9]	–	95	–	–	81.9	112
[10]	–	99.1	–	–	121	103
[11]	100	–	102	105	–	–
[12]	–	138	–	–	116	125
[13]	–	100	–	–	118	108
[14]	–	101	–	–	78.2	115
[15]	–	105	–	–	118	110
[16]	–	104	–	–	98	113
[17]	107	–	92.9	98.1	–	–
[18]	–	110	–	–	106	114
[19]	–	115	–	–	116	96.2
[20]	–	111	–	–	111	114
[21]	110	–	101	94.2	–	–
[22]	117	–	94.9	96.9	–	–
[23]	–	107	–	–	108	122
[24]	–	108	–	–	95.2	94.1

C[C@@H](C(=O)O)c1ccc(-c2ccccc2)c(F)c1 [Tarenflurbil]
Conditions	drug sensitivity score
[1]	0
[2]	0
[3]	0
[4]	0
[5]	0
[6]	0

normalised viability [%]
Conditions	3 nM	10 nM	30 nM	100 nM	1000 nM	10000 nM
[7]	106	–	106	98.9	–	–
[8]	87.2	–	88.4	93	–	–
[9]	–	104	–	–	90.4	138
[10]	–	94.6	–	–	118	106
[11]	80	–	96.6	87.3	–	–
[12]	–	112	–	–	107	113
[13]	–	86.4	–	–	95.3	86.9
[14]	–	84.3	–	–	92.9	102
[15]	–	100	–	–	119	90
[16]	–	93.6	–	–	97.2	93.2
[17]	101	–	95.6	108	–	–
[18]	–	94	–	–	92.2	99.4
[19]	–	97.7	–	–	106	92.6
[20]	–	99.3	–	–	105	126
[21]	118	–	115	111	–	–
[22]	106	–	89.2	85.6	–	–
[23]	–	97.8	–	–	88.6	103
[24]	–	97.6	–	–	104	112

Cn1nnc2c(C(N)=O)ncn2c1=O [Temozolomide]
Conditions	drug sensitivity score
[1]	0
[2]	0
[3]	0
[4]	0
[5]	0
[6]	0

normalised viability [%]
Conditions	3 nM	10 nM	30 nM	100 nM	1000 nM	10000 nM
[7]	95.6	–	88.5	27.3	–	–
[8]	102	–	98.2	107	–	–
[9]	–	102	–	–	91.3	101
[10]	–	103	–	–	89.8	117
[11]	94	–	88.8	93	–	–
[12]	–	94.7	–	–	100	87.5
[13]	–	90.5	–	–	95.9	102
[14]	–	88.3	–	–	105	116
[15]	–	92.3	–	–	89.5	99.1
[16]	–	98.4	–	–	96.7	103
[17]	108	–	95.3	113	–	–
[18]	–	101	–	–	104	100
[19]	–	104	–	–	92.7	85.1
[20]	–	95.1	–	–	99.8	113
[21]	91.1	–	96.3	91.4	–	–
[22]	112	–	108	100	–	–
[23]	–	101	–	–	88	91
[24]	–	105	–	–	91.6	74.7

CC[C@@H]1C(=O)N(C)c2cnc(Nc3ccc(C(=O)N[C@H]4CC[C@H](N5CCN(CC6CC6)CC5)CC4)cc3OC)nc2N1C(C)C [Volasertib]
Conditions	drug sensitivity score
[1]	5.3
[2]	8.07
[3]	11.2
[4]	3.79
[5]	8.92
[6]	9.58

normalised viability [%]
Conditions	0.3 nM	1 nM	3 nM	10 nM	100 nM	1000 nM
[7]	108	–	84	76.4	–	–
[8]	96.4	–	86.7	82.3	–	–
[9]	–	113	–	–	83.5	80.8
[10]	–	94.6	–	–	86.2	74
[11]	98.2	–	94.8	72	–	–
[12]	–	127	–	–	56.6	96.8
[13]	–	86.3	–	–	41.2	41.2
[14]	–	131	–	–	30.8	34.9
[15]	–	104	–	–	45	51.9
[16]	–	88.8	–	–	48.9	56.2
[17]	98.4	–	88.2	86.1	–	–
[18]	–	91.1	–	–	26.8	24.7
[19]	–	111	–	–	40.3	35.1
[20]	–	105	–	–	20.7	24.1
[21]	116	–	99.8	100	–	–
[22]	117	–	89.9	46.2	–	–
[23]	–	114	–	–	36.3	45.9
[24]	–	94.9	–	–	36.9	41.6
